In article PMC7934871 (JCI Insight, 2021):
Non-standard residues stand in square brackets, D forms with d. No end group written: not given here. pY = N[C@@H](Cc1ccc(OP(=O)(O)O)cc1)C(=O)O

Assays:
[1] = test system: pY705-STAT3; test: Western blotting of p-STAT3 in HCT116 cells; format: cell-based, human
Excerpt: Figure 3 PS-acet.-STAT3 peptide inhibits STAT3 activity and downregulates the expression of STAT3 targets. (A) Downregulation of STAT3 activity and its downstream target proteins shown in human HCT116 colorectal cancer cells by Western blotting (data represent 1 of the 3 experiments, n = 3). PO-acet.-STAT3 and PS-STAT3-K685R peptides were used in parallel as controls. (B) STAT3 inhibition regulated the expression of proliferation and apoptotic genes, assessed by real-time quantitative PCR. Data present mean ± SD, n = 3 independent experiments, 1-way ANOVA; ***P < 0.005; **P < 0.01. […] For p53 promoter assay, data represent 3 replicates in 3 independent experiments (n = 9). For cell proliferation assay, data represent 3 independent experiments. SD is shown (n = 3). One-way ANOVA; ***P < 0.005; **P < 0.01.
Whole cell lysates or tissue homogenates were prepared by using RIPA lysis buffer (50 mM Tris at pH 7.4, 150 mM NaCl, 1 mM EDTA, 0.5% NP-40, 1 mM NaF, 15% glycerol, and 20 mM β-glycerophosphate). A protease inhibitor cocktail (Mini Protease Inhibitor Cocktail; Roche) and a tyrosine phosphatase inhibitor, sodium orthovanadate (Na3VO4, 1 mM), were added freshly to the lysis buffer. Protein amounts were determined by BCA using a Thermo Fisher Scientific kit. Normalized protein amounts were subjected to an SDS-PAGE and transferred onto a nitrocellulose membrane for Western blotting. […] The protein levels for STAT1 (sc-346, E-23), STAT3 (sc-482, C-20), STAT5 (sc-74442, A-9), Crm1 (exportin 1) (sc-5595, H-300), CAS (exportin 2) (sc-271537, H-2), exportin 5 (sc-66885, H-300), and exportin 7 (sc-98639, H-82) were determined using antibodies from Santa Cruz Biotechnology Inc. Anti–exportin 3 (exportin T, 630622, LOS1 05-1525), anti–exportin 4 (3499-1), and anti–exportin 6 (11408-1-AP) were from MilliporeSigma, Epitomics, and Proteintech, respectively. […]
Supplemental Figure 4 (related to Figure 1). […] Phosphorylation of STAT3 at Y705 and STAT5 at Y694 was detected by Western blotting after 48 hours treatment of PS-acet.-STAT3 peptide (1 µM) or napabucasin (1 µM) in HCT116 cells. […]

[2] = test system: exportins 1–6; test: Immunoprecipitation of FAM-labeled peptide and Western blotting, exportins 1–6; format: binding, human; conditions: anti-FITC (FAM) immunoprecipitation, Western blotting, U251 cells
Procedure: Data are representative of 3 independent experiments (n = 3).
Whole cell lysates or tissue homogenates were prepared by using RIPA lysis buffer (50 mM Tris at pH 7.4, 150 mM NaCl, 1 mM EDTA, 0.5% NP-40, 1 mM NaF, 15% glycerol, and 20 mM β-glycerophosphate). A protease inhibitor cocktail (Mini Protease Inhibitor Cocktail; Roche) and a tyrosine phosphatase inhibitor, sodium orthovanadate (Na3VO4, 1 mM), were added freshly to the lysis buffer. Protein amounts were determined by BCA using a Thermo Fisher Scientific kit. Normalized protein amounts were subjected to an SDS-PAGE and transferred onto a nitrocellulose membrane for Western blotting. Proteins were visualized with a chemiluminescent detection kit (Pierce, Thermo Fisher Scientific). The protein levels for STAT1 (sc-346, E-23), STAT3 (sc-482, C-20), STAT5 (sc-74442, A-9), Crm1 (exportin 1) (sc-5595, H-300), CAS (exportin 2) (sc-271537, H-2), exportin 5 (sc-66885, H-300), and exportin 7 (sc-98639, H-82) were determined using antibodies from Santa Cruz Biotechnology Inc. Anti–exportin 3 (exportin T, 630622, LOS1 05-1525), anti–exportin 4 (3499-1), and anti–exportin 6 (11408-1-AP) were from MilliporeSigma, Epitomics, and Proteintech, respectively. […]

[3] = test system: IL-6–induced STAT3 phosphorylation; test: IL-6–induced STAT3 phosphorylation, Western blotting; format: cell-based; conditions: preincubated 2 hours, 20 ng/mL IL-6 for 30 minutes
Procedure: Figure 8 PS-Gp130 and PS-MYC blocking peptides efficiently internalize into tumor cells to exert their functions. (A) For 1 hour 1 μM of PS-conjugated MYC (PS-MYC) and Gp130 (PS-Gp130) were incubated with cancer cells. PS-scramble MYC (PS-SC-MYC) was used as a control for PS-MYC. The peptide uptake was visualized by confocal microscopy and quantified by flow cytometry. Data are representative of 3 independent experiments (n = 3). (B) Upper panel: The binding of PS-Gp130 and STAT3 was examined by immunoprecipitation and Western blotting. PO-Gp130 was used as a control. For 4 hours prior to harvest, 1 μM of peptide was incubated with cells. Lower panel: PS-Gp130 inhibits IL-6–induced phosphorylation of STAT3 and p44/42 but not EGF-mediated signaling. The cells were preincubated with PS-Gp130 for 2 hours and then stimulated with 20 ng/mL of IL-6 or 30 ng/mL of EGF for 30 minutes before harvest and Western blotting. (C) Gene expression of STAT3 targets was examined by quantitative PCR after the treatment with 1 μM of PS-Gp130 with or without IL-6 stimulation as described above. Data shown are 3 independent experiments (n = 3); SD is shown. Unpaired Student’s t test; ***P < 0.005; **P < 0.01; *P < 0.05. (D) A total of 1 μM of PS-SC-MYC or PS-MYC was incubated with cells for 48 hours before the gene expression of MYC targets was examined by quantitative PCR. […]

| Substance | phosphorylated STAT3 (p-STAT3, Y705) level ([1]; HCT116, 1 µM, 48 hours) | STAT3 activation (pY705-STAT3) ([1]; HCT116, approximately 1 μM) | binding to exportins 1–6 [2] | IL-6–induced STAT3 phosphorylation [3] |
| --- | --- | --- | --- | --- |
| PDIPKEEAFGK685(Ac)YCRPESQEHPC-linker-T*C*C*A*T*G*A*G*C*T*T*C*C*T*G*A*T*G*C*T [PS-acet.-STAT3 peptide] | reduced | significant downregulation | not | – |
| PS-Gp130: PS-conjugated Gp130 peptide (amino acids 901–910) with phospho-Tyr905 (MPKS[pY]LPQTV; also: phosphorothioate oligonucleotide conjugate; UniProt P40189 901-910, looked up, fragment) | – | – | – | selectively inhibited |
